Test results: patent US20230084839A1, “ACTIVE AGENTS AGAINST CORONAVIRUS INFECTIONS AND DISEASES CAUSED THEREBY” (Eberhard Karls Universität Tübigen Medizinische Fakultät, priority 2020, published 2023)

Experiments:
[1] = system: SARS-CoV-2; assay type: cell-based; details: Calu3 cells; for reduction of the cytopathic effect caused by viral infection: Data series 1, SARS-CoV-2, 10 and 1 μM, compared with mock and infected; for inhibitory effects on the virus-induced cytopathic effect: Data series 2, concentrations 10 μM-0.3125 μM
[2] = system: SARS-CoV-2; assay type: cell-based; details: 48 hours post-infection, DAPI+ cell count

SMILES | reduction of the cytopathic effect caused by viral infection [1] | inhibitory effects on the virus-induced cytopathic effect [1] | concentration from which positive effects on the total number or survival of Calu3 cells after SARS-CoV-2 infection occur [2] | positive effects on the total number or survival of Calu3 cells after SARS-CoV-2 infection [2]
COc1cc2c(cc1-c1c(C)noc1C)ncc1[nH]c(=O)n([C@H](C)c3ccccn3)c12 [IBET151] | significant reduction | still evident even at the lowest concentrations | approximately 20 nM | –
CN(C)C(=O)c1cc2cnc(Nc3ccc(N4CCNCC4)cn3)nc2n1C1CCCC1 [ribociclib, Ribociclib] | no inhibitory effects | – | – | –
Cc1sc2c(c1C)C(c1ccc(Cl)cc1)=N[C@@H](CC(N)=O)c1nnc(C)n1-2 [CPI203] | significant reduction | still evident even at the lowest concentrations | approximately 20 nM | –
CCN(CCO)CCCC(C)Nc1ccnc2cc(Cl)ccc12 (stereo not drawn) [hydroxychloroquine, Hydroxychloroquine] | no inhibitory effects | – | – | not observed
